Test results reported in paper PMC11606874, “Structural and in vitro anticancer properties of the kaempferol–lactoferrin complex” (Food Science & Nutrition, 2024).

Biological target: T1, lactoferrin (Bos taurus, UniProt P24627)
T1 construct: gene LTF
Assay: intrinsic fluorescence quenching titration (Stern-Volmer and double-logarithmic Ka at […] K), synchronous fluorescence, UV-vis difference spectra
Format: binding
Settings: read-out: K a (L mol^-1) (converted)

T1 sequence (P24627 20-708): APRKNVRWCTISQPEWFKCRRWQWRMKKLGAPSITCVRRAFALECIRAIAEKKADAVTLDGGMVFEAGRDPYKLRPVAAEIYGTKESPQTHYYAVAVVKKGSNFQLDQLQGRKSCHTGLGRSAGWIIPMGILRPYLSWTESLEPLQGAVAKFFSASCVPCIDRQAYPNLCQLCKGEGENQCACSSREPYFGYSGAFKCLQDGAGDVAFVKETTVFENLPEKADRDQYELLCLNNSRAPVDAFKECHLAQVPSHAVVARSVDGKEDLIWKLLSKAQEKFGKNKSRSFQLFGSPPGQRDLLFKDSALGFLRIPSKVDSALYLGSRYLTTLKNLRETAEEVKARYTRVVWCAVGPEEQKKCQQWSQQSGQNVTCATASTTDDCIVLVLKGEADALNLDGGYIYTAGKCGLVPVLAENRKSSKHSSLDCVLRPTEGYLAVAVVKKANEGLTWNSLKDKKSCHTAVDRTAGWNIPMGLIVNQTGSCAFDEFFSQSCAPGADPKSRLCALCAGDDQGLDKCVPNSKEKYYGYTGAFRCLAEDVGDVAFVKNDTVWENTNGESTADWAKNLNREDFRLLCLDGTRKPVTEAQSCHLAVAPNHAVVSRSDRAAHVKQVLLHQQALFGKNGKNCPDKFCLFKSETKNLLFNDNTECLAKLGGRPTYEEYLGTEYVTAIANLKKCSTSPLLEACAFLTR

O=c1c(O)c(-c2ccc(O)cc2)oc2cc(O)cc(O)c12 [KAE, kaempferol]
Kd: 43.3 µM
